Results as given in patent US20240270821A1, “GIP/GLP1/GCG TRI-RECEPTOR AGONISTS AND USES THEREOF” (priority 2023, published 2024).
Read-outs that look alike come from different tables or passages of the source. Starred links: 1 amine or outer side, 2 acyl side, 3 side chain; linkers in the order of their positions; H or OH if unused. Non-standard residues stand in square brackets, D forms with d. Residues, ends and D or L forms follow the SMILES beside them. Groups on a side chain read outwards from the residue. No end group written: not given here. *: point of attachment. C18 diacid = O=C(O)CCCCCCCCCCCCCCCCC(=O)*; αMePhe(2-F) = C[C@](N)(Cc1ccccc1F)C(=O)O; γGlu = O=C(O)[C@H](CCC(=O)[*:2])N[*:1]; αMe4Pal = C[C@](N)(Cc1ccncc1)C(=O)O; αMeY = C[C@](N)(Cc1ccc(O)cc1)C(=O)O; αMeF = C[C@](N)(Cc1ccccc1)C(=O)O; 4Pal = N[C@@H](Cc1ccncc1)C(=O)O; αMeL = CC(C)C[C@](C)(N)C(=O)O; αMeS = C[C@](N)(CO)C(=O)O; Orn = NCCC[C@H](N)C(=O)O; AEEA = NCCOCCOCC(=O)O; Aib = CC(C)(N)C(=O)O

Experiments:
Assay type in all cases: cell-based
human GcgR = human GcgR (Homo sapiens, UniProt P47871); test: Functional cAMP activity in the presence of 1% HSA; conditions: read-out: cAMP Rel EC50, hGcgR
Chain of human GcgR (P47871 26-477): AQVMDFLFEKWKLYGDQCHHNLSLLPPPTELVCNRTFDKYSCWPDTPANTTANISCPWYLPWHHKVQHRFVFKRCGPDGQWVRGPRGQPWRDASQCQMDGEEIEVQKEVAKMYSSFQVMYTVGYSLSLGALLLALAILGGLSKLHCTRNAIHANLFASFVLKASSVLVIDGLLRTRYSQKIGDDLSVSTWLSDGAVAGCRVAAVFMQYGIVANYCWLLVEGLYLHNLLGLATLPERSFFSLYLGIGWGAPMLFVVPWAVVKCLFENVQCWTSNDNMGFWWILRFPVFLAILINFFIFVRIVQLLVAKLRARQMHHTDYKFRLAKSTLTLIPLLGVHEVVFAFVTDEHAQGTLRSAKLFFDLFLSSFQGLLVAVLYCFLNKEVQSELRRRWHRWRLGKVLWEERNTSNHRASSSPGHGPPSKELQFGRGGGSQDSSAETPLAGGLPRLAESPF

hGIPR [1] = target: T1, hGIPR (Homo sapiens, UniProt P48546); test: Functional cAMP activation in the presence of 0.1% casein (no HSA); conditions: read-out: Relative cAMP EC50, hGIPR;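 further: intracellular cAMP rise after 30 min at 37 °C read by HTRF against a standard curve, scaled between buffer alone (0%) and top control ligand concentration (100%), four-parameter fit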
T1 sequence (P48546 22-466): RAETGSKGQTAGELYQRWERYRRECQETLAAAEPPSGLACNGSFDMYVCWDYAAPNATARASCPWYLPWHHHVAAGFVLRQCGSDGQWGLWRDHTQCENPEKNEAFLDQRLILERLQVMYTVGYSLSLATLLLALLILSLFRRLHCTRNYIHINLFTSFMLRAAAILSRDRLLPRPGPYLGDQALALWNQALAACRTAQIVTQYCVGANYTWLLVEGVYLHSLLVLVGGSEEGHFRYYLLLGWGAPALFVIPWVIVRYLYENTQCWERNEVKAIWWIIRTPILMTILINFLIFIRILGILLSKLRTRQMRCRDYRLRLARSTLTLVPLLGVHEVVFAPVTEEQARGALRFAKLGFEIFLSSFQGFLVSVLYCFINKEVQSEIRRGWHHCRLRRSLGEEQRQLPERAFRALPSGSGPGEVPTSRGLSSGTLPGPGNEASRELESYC

hGLP-1R [2] = target: T2, hGLP-1R (Homo sapiens, UniProt P43220); test: as above; conditions: read-out: Relative cAMP EC50, hGLP-1R;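 further: intracellular cAMP rise after 30 min at 37 °C read by HTRF, normalized between buffer only (0%) and maximal control ligand (100%), four-parameter variable-slope fit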
T2 sequence (P43220 24-463): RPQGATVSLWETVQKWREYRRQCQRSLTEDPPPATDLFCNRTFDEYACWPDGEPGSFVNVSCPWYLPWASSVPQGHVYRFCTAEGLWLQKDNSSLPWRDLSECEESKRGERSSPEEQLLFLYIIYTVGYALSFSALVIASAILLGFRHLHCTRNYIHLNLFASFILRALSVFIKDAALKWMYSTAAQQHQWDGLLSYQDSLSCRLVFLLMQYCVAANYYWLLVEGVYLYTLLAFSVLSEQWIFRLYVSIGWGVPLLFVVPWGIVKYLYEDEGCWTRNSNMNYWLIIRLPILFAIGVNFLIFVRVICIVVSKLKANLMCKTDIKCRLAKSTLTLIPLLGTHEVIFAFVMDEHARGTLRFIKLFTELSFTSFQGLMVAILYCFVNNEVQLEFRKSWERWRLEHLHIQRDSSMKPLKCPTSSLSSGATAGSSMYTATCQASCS

hGIPR [3] = target: T1, hGIPR; test: Functional cAMP activity in the presence of 1% HSA; conditions: read-out: cAMP Rel EC50, hGIPR
hGLP-1R [4] = target: T2, hGLP-1R; test: Functional cAMP activity in the presence of 1% HSA; conditions: read-out: cAMP Rel EC50, hGLP-1R
hGcgR = hGcgR (Homo sapiens, UniProt P47871); test: Functional cAMP activation in the presence of 0.1% casein (no HSA); conditions: read-out: Relative cAMP EC50, hGcgR;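 further: intracellular cAMP rise after 30 min at 37 °C, read by HTRF against a cAMP standard curve, scaled from buffer only (0%) to maximal control ligand response (100%)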
Chain of hGcgR (P47871 26-477): as the sequence (P47871 26-477) above

[5] = in the presence of 0.1% casein (no HSA), geometric mean

Compound	EC50 (hGIPR [1])	EC50 (hGLP-1R [2])	EC50 (hGcgR)	EC50 (human GcgR)	EC50 (hGIPR [1]; [5])	EC50 (hGLP-1R [2]; [5])	EC50 (hGIPR [3])	EC50 (hGLP-1R [4])	EC50 (hGcgR; [5])
H-Y[Aib]QGTFTSD[4Pal]SQ[αMeL]LD[Orn]K([Glu-γGlu-C18 diacid])AQ[αMe4Pal]AFIQ[αMeY]LIEGGPSSGAPPPSGSEEE-NH2 [Example 1077]	–	–	–	3160 nM	0.23 nM	1.48 nM	27.8 nM	408 nM	18.8 nM
H-Y[Aib]QGTFTSDFS[Orn][αMeL]LDKK([AEEA-γGlu-C18 diacid])AQ[Aib]AFIEYLLEGGPSSGEPPPSGS-NH2 [Example 131]	–	–	–	976 nM	0.416 nM	5.51 nM	91.8 nM	984 nM	2.64 nM
H-Y[Aib]QGTFTSD[4Pal]SQ[αMeL]LD[Orn]K([AEEA-γGlu-C18 diacid])AQ[αMe4Pal]QFIE[αMeY]LIEGGPSSGAPPPSGSEE-NH2 [Example 1045]	–	–	–	1540 nM	0.781 nM	1.51 nM	107 nM	276 nM	7.35 nM
Y[Aib]QGT[αMePhe(2-F)]TSD[4Pal][αMeS]I[αMeL]LD[Orn]K([AEEA-γGlu-C18 diacid])AQ[αMe4Pal]EFI[dE][αMeY]LIEGGPSSGAPPPESE-NH2 [Example 1146]	–	–	–	198 nM	0.00628 nM	0.281 nM	0.825 nM	40.1 nM	1.22 nM
H-Y[Aib]QGT[αMePhe(2-F)]TSDYSI[αMeL]LD[Orn]K([AEEA-γGlu-C18 diacid])AQ[Aib]AFI[dE]YLLEGGPSSGAPPPSEG-NH2 [Example 404]	0.0102 nM	0.217 nM	4.1 nM	735 nM	–	–	2.03 nM	32.2 nM	–
H-Y[Aib]QGTFTSDFS[Orn][αMeL]LDKK([AEEA-γGlu-C18 diacid])AQ[Aib]AFIEYLLEGGPSSGAPPPGGQ-NH2 [Example 159]	–	–	–	475 nM	0.343 nM	4.15 nM	49.7 nM	588 nM	6.89 nM
CC[C@H](C)[C@H](NC(=O)[C@H](Cc1ccccc1)NC(=O)[C@H](CCCN)NC(=O)C(C)(C)NC(=O)[C@H](CCC(N)=O)NC(=O)[C@H](C)NC(=O)[C@H](CCCCNC(=O)COCCOCCNC(=O)CC[C@H](NC(=O)CCCCCCCCCCCCCCCCC(=O)O)C(=O)O)NC(=O)[C@H](CCCN)NC(=O)[C@H](CC(=O)O)NC(=O)[C@H](CC(C)C)NC(=O)[C@H](CC(C)C)NC(=O)[C@H](CO)NC(=O)[C@](C)(CO)NC(=O)[C@H](Cc1ccc(O)cc1)NC(=O)[C@H](CC(=O)O)NC(=O)[C@H](CO)NC(=O)[C@@H](NC(=O)[C@](C)(Cc1ccccc1)NC(=O)[C@@H](NC(=O)CNC(=O)[C@H](CCC(N)=O)NC(=O)C(C)(C)NC(=O)[C@@H](N)Cc1ccc(O)cc1)[C@@H](C)O)[C@@H](C)O)C(=O)N[C@H](CCC(=O)O)C(=O)N[C@@](C)(Cc1ccc(O)cc1)C(=O)N[C@@H](CC(C)C)C(=O)N[C@@H](CC(C)C)C(=O)N[C@@H](CCC(=O)O)C(=O)NCC(=O)NCC(=O)N1CCC[C@H]1C(=O)N[C@@H](CO)C(=O)N[C@@H](CO)C(=O)NCC(=O)N[C@@H](CCC(=O)O)C(=O)N1CCC[C@H]1C(=O)N1CCC[C@H]1C(=O)N1CCC[C@H]1C(=O)N[C@@H](CCC(=O)O)C(N)=O [Example 390] (H-Y[Aib]QGT[αMeF]TSDY[αMeS]SLLD[Orn]K([AEEA-γGlu-C18 diacid])AQ[Aib][Orn]FI[dE][αMeY]LLEGGPSSGEPPPE-NH2)	–	–	–	549 nM	0.122 nM	0.134 nM	37.8 nM	19.6 nM	3.08 nM
H-Y[Aib]QGTFTSD[4Pal]SQ[αMeL]LDKK([dE-dE-γGlu-C18 diacid])AQ[αMe4Pal]AFIEYLIE[Aib]GPSSGAPPPSGS-NH2 [Example 921]	–	–	–	2130 nM	0.228 nM	3.73 nM	12.4 nM	261 nM	10.4 nM

Continued, in another order:

EC50 (hGIPR [1])	EC50 (hGLP-1R [2])	EC50 (hGcgR)	Compound	EC50 (human GcgR)	EC50 (hGIPR [1]; [5])	EC50 (hGLP-1R [2]; [5])	EC50 (hGIPR [3])	EC50 (hGLP-1R [4])	EC50 (hGcgR; [5])
0.0634 nM	0.293 nM	4.38 nM	CC[C@H](C)[C@H](NC(=O)[C@H](Cc1ccccc1)NC(=O)[C@H](CCCN)NC(=O)C(C)(C)NC(=O)[C@H](CCC(N)=O)NC(=O)[C@H](C)NC(=O)[C@H](CCCCNC(=O)CC[C@H](NC(=O)CC[C@H](NC(=O)CCCCCCCCCCCCCCCCC(=O)O)C(=O)O)C(=O)O)NC(=O)[C@H](CCCN)NC(=O)[C@H](CC(=O)O)NC(=O)[C@H](CC(C)C)NC(=O)[C@](C)(CC(C)C)NC(=O)[C@@H](NC(=O)[C@](C)(CO)NC(=O)[C@H](Cc1ccncc1)NC(=O)[C@H](CC(=O)O)NC(=O)[C@H](CO)NC(=O)[C@@H](NC(=O)[C@](C)(Cc1ccccc1F)NC(=O)[C@@H](NC(=O)CNC(=O)[C@H](CCC(N)=O)NC(=O)C(C)(C)NC(=O)[C@@H](N)Cc1ccc(O)cc1)[C@@H](C)O)[C@@H](C)O)[C@@H](C)CC)C(=O)N[C@H](CCC(=O)O)C(=O)N[C@@](C)(Cc1ccc(O)cc1)C(=O)N[C@@H](CC(C)C)C(=O)N[C@@H](CCC(N)=O)C(=O)N[C@@H](CCC(=O)O)C(=O)NCC(=O)NCC(=O)N1CCC[C@H]1C(=O)N[C@@H](CO)C(=O)N[C@@H](CO)C(=O)NCC(=O)N[C@@H](CCC(=O)O)C(=O)N1CCC[C@H]1C(=O)N1CCC[C@H]1C(=O)N1CCC[C@H]1C(=O)N[C@@H](CCC(=O)O)C(N)=O [Example 439] (H-Y[Aib]QGT[αMePhe(2-F)]TSD[4Pal][αMeS]I[αMeL]LD[Orn]K([γGlu-γGlu-C18 diacid])AQ[Aib][Orn]FI[dE][αMeY]LQEGGPSSGEPPPE-NH2)	165 nM	–	–	14.6 nM	15.1 nM	–
0.0692 nM	0.542 nM	6.32 nM	H-Y[Aib]QGT[αMePhe(2-F)]TSD[4Pal]SILLD[Orn]K([γGlu-γGlu-C18 diacid])AQ[Aib]AFIEYLQEGGPSSGEPPPSGTEE-NH2 [Example 583]	1250 nM	–	–	12.3 nM	71 nM	–
0.244 nM	3.91 nM	5.37 nM	H-Y[Aib]QGTFTSDFS[Orn][αMeL]LDKK([γGlu-γGlu-C18 diacid])AQ[Aib]AFIEYLLEGGPSS[Aib]APPPGGS-NH2 [Example 770]	390 nM	–	–	18.2 nM	240 nM	–
0.0237 nM	0.267 nM	5.66 nM	CC[C@H](C)[C@H](NC(=O)[C@H](Cc1ccccc1)NC(=O)[C@H](C)NC(=O)C(C)(C)NC(=O)[C@H](CCC(N)=O)NC(=O)[C@H](C)NC(=O)[C@H](CCCCNC(=O)COCCOCCNC(=O)CC[C@H](NC(=O)CCCCCCCCCCCCCCCCC(=O)O)C(=O)O)NC(=O)[C@H](CCCCN)NC(=O)[C@H](CC(=O)O)NC(=O)[C@H](CC(C)C)NC(=O)[C@](C)(CC(C)C)NC(=O)[C@@H](NC(=O)[C@H](CO)NC(=O)[C@H](Cc1ccncc1)NC(=O)[C@H](CC(=O)O)NC(=O)[C@H](CO)NC(=O)[C@@H](NC(=O)[C@](C)(Cc1ccccc1F)NC(=O)[C@@H](NC(=O)CNC(=O)[C@H](CCC(N)=O)NC(=O)C(C)(C)NC(=O)[C@@H](N)Cc1ccc(O)cc1)[C@@H](C)O)[C@@H](C)O)[C@@H](C)CC)C(=O)N[C@@H](CCC(=O)O)C(=O)N[C@@H](Cc1ccc(O)cc1)C(=O)N[C@@H](CC(C)C)C(=O)N[C@@H](CCC(=O)O)C(=O)N[C@@H](CCC(=O)O)C(=O)NCC(=O)NCC(=O)N1CCC[C@H]1C(=O)N[C@@H](CO)C(=O)N[C@@H](CO)C(=O)NCC(=O)N[C@@H](CCC(=O)O)C(=O)N1CCC[C@H]1C(=O)N1CCC[C@H]1C(=O)N1CCC[C@H]1C(=O)N[C@@H](CO)C(N)=O [Example 442] (H-Y[Aib]QGT[αMePhe(2-F)]TSD[4Pal]SI[αMeL]LDKK([AEEA-γGlu-C18 diacid])AQ[Aib]AFIEYLEEGGPSSGEPPPS-NH2; N-terminus assumed)	342 nM	–	–	1.81 nM	23.9 nM	–
